Results: PubChem BioAssay (NCI)
Where “and” joins values, the source holds several entries; their conditions need not be identical. Identical values can stand only once.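 Test compounds were applied to cells in 96-well plates for 48 hours at 5 doses. Abbreviation: GI50, concentration required for 50% inhibition of growth. TGI denotes the concentration required for complete inhibition of growth.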

Legend:
Experiment in all cases: NCI-60 cell line screen, 48 h
RXF 393 renal = system: RXF 393 renal
HCT-116 colon = system: HCT-116 colon
SNB-75 CNS = system: SNB-75 CNS
OVCAR-3 ovarian = system: OVCAR-3 ovarian
NCI/ADR-RES ovarian = system: NCI/ADR-RES ovarian
NCI-H522 lung = system: NCI-H522 lung
HT29 colon = system: HT29 colon
SK-OV-3 ovarian = system: SK-OV-3 ovarian
HOP-92 NSCLC = system: HOP-92 NSCLC
K-562 leukemia = system: K-562 leukemia

Structure (SMILES)	GI50 (RXF 393 renal)	TGI (RXF 393 renal)	GI50 (HCT-116 colon)	TGI (HCT-116 colon)	GI50 (SNB-75 CNS)	TGI (SNB-75 CNS)	GI50 (OVCAR-3 ovarian)	TGI (OVCAR-3 ovarian)	GI50 (NCI/ADR-RES ovarian)	TGI (NCI/ADR-RES ovarian)	GI50 (NCI-H522 lung)	TGI (NCI-H522 lung)	GI50 (HT29 colon)	TGI (HT29 colon)	GI50 (SK-OV-3 ovarian)	TGI (SK-OV-3 ovarian)	GI50 (HOP-92 NSCLC)	TGI (HOP-92 NSCLC)	GI50 (K-562 leukemia)	TGI (K-562 leukemia)
FC(F)(F)c1[nH]ncc1-c1nc2c(N3CCCCC3)cc3[nH]ncc3c2c2c1CCCC2	0.395 µM	1.07 µM	0.432 µM	3.57 µM	0.533 µM	1.2 µM	1.07 µM	3.14 µM	2.04 µM	> 50 µM	0.485 µM	3.24 µM	1.3 µM	> 50 µM	0.523 µM	4.22 µM	0.29 µM	1.62 µM	1.04 µM	> 50 µM
Cc1ccc(Nc2[nH]c(C(=O)c3ccc(Cl)cc3)c(N)c2C(=S)Nc2ccccc2)nc1	35.9 µM	> 100 µM	42.8 µM	> 100 µM	79.3 µM	> 100 µM	29.4 µM	74 µM	15.9 µM	87.7 µM	24 µM	73.2 µM	57.8 µM	> 100 µM	52.3 µM	> 100 µM	29.5 µM	> 100 µM	45.4 µM	> 100 µM
S=c1nc[nH]c2nc[nH]c12	–	> 100 µM and 629 µM and > 750 µM	5.4 µM	> 100 µM and 710 µM and > 750 µM	–	> 100 µM and 402 µM and > 621 µM	0.762 µM and 3.66 µM	> 100 µM and 537 µM and > 750 µM	–	> 735 µM	5.3 µM and 8.69 µM	> 100 µM and 302 µM and > 750 µM	22.5 µM	> 750 µM	0.629 µM and 5.06 µM	> 100 µM and 448 µM and > 750 µM	0.578 µM	82.2 µM and 285 µM	3.34 µM	446 µM and 251 µM
COc1nc2c(cc1S(=O)(=O)c1ccccc1)CCc1c-2cnn1Cc1ccccc1	6.04 µM	> 100 µM	3.8 µM	> 100 µM	20 µM	> 100 µM	9.35 µM	> 100 µM	9.84 µM	> 100 µM	–	–	3.89 µM	> 100 µM	9.86 µM	> 100 µM	–	–	3.02 µM	> 100 µM
COc1cc(/C=C2\CCCC3C2=Nc2ccccc2NC3c2cc(OC)c(OC)c(OC)c2)cc(OC)c1OC (stereo unspecified)	2.08 µM	5.31 µM	0.968 µM	2.17 µM	21.9 µM	> 100 µM	2.08 µM	6.07 µM	0.957 µM	> 100 µM	1.9 µM	4.92 µM	1.21 µM	–	4.87 µM	> 100 µM	1.83 µM	9.84 µM	2.1 µM	10.3 µM
CC(C)(C)OC(=O)N1CC(Cn2cc(C(F)(F)F)c3c(Cl)ncnc32)C1	1.43 µM	3.59 µM	1.86 µM	3.35 µM	4.99 µM	18.1 µM	1.92 µM	3.6 µM	13.9 µM	65.4 µM	13.3 µM	28.4 µM	2.6 µM	6.67 µM	2.91 µM	8.21 µM	4.5 µM	21.4 µM	2.81 µM	> 100 µM
CC(C)[C@](O)(C(=O)OCC1=CC[N+]2([O-])CC[C@@H](O)[C@@H]12)[C@H](C)O (stereo partly specified)	–	> 7940 µM	–	> 10000 µM	–	> 10000 µM	–	> 10000 µM	–	> 10000 µM	–	> 10000 µM	–	> 10000 µM	–	> 10000 µM	–	> 10000 µM	–	> 10000 µM
Clc1nc(Cl)c2ncn(C/C=C/Cn3cnc4c(Cl)nc(Cl)nc43)c2n1	2.3 µM	6.42 µM	10.7 µM	24.4 µM	19.1 µM	44 µM	12.2 µM	25.4 µM	20.1 µM	44.6 µM	6.75 µM	22.7 µM	14.7 µM	29.9 µM	44.3 µM	> 100 µM	–	–	15.5 µM	55.8 µM
COc1ccc(-c2ccc3ncc4c(c3c2)n(-c2ccc(N3CCNCC3)c(C(F)(F)F)c2)c(=O)n4C)cn1	< 0.01 µM and 0.0018 µM	< 0.0323 µM and 0.00977 µM	< 0.0143 µM and 0.00853 µM	0.165 µM and 0.142 µM	< 0.01 µM and 0.00263 µM	0.0129 µM and 0.0255 µM	< 0.01 µM and 0.00596 µM	0.341 µM and 0.497 µM	0.0531 µM and 0.0595 µM	1.27 µM and 0.712 µM	< 0.01 µM and 0.00669 µM	1.07 µM and 0.379 µM	< 0.01 µM and 0.00658 µM	0.122 µM and 0.393 µM	< 0.01 µM and 0.006 µM	0.0183 µM and 0.0462 µM	< 0.01 µM and 0.00146 µM	0.0219 µM and 0.0155 µM	0.00843 µM	0.204 µM
COc1cc(-c2nc(-c3nnc(-c4ccc(F)c(Cl)c4)o3)c3ccccn23)cc(OC)c1OC	2.62 µM	7 µM	–	–	1.3 µM	3.46 µM	2.76 µM	8.69 µM	1.88 µM	5.24 µM	1.92 µM	4.66 µM	–	–	–	–	1.55 µM	6.26 µM	4.34 µM	> 100 µM
OC(COc1cccc2ccccc12)CN1CCN(c2ccc(Cl)cc2)CC1 (stereo unspecified)	28.6 µM	75.9 µM	23.4 µM	> 100 µM	9.76 µM	27.1 µM	23.8 µM	69.1 µM	16.4 µM	61.1 µM	15.7 µM	43.5 µM	16.6 µM	77.6 µM	14.7 µM	45.2 µM	5.02 µM	28 µM	> 100 µM	> 100 µM
C=CC[N+]1(CCO)CCN=C1CCCCCCCCCCCCC (stereo unspecified)	1.44 µM	2.81 µM	1.4 µM	2.69 µM	1.56 µM	2.9 µM	–	–	1.65 µM	3.01 µM	–	–	1.3 µM	2.56 µM	1.73 µM	3.14 µM	–	–	–	–
COc1cc2cn3c4ccc(O)cc4nc(N)c3c2cc1OC	0.283 µM	2.5 µM	0.0931 µM	1.72 µM	0.0886 µM	7.49 µM	0.231 µM	3 µM	1.92 µM	17.3 µM	0.0713 µM	1.91 µM	0.714 µM	4.57 µM	0.211 µM	10.8 µM	0.669 µM	8.06 µM	0.0348 µM	3.6 µM
